Laboratory results taken from paper PMC4605843, “Cell-Penetrating Peptides Selectively Cross the Blood-Brain Barrier In Vivo” (PLoS ONE, 2015).
Several values for one entry are separate records, joined by “and”; a condition that tells them apart may be missing. Identical values can stand only once.

Legend:
[1] = In vitro metabolic stability in mouse serum; format: in vitro ADME
Experimental: (§1) Prior to use, the protein content of each homogenate was determined using the Pierce Modified Lowry Protein Assay method (Thermo Scientific) to generate a stock solution with a protein concentration of 0.6 mg/ml by dilution with Krebs-Henseleit buffer (pH 7.4, Sigma-Aldrich). […] After sampling, enzymatic activity was terminated by additional heat inactivation at 95°C for 5 min, followed by cooling the samples in an ice bath for 30 min. […] Therefore, a solid phase extraction (SPE) protocol using an Oasis® WCX μelution plate (Waters, Zellik, Belgium) was used prior to HPLC-UV analysis. In the Supporting Information, the protocol of the SPE extraction procedure is described (S1 Text). Blank control solutions were prepared as described above, but without adding the peptide. To confirm chemical stability and mass balance, control reference solutions without tissue homogenate or with a prior heat inactivation were analyzed as well. The HPLC-UV system consisted of a Waters Alliance 2695 separation module and a Waters 2996 photodiode array (PDA) detector (detection from 190-400 nm, quantification at 215 nm), fitted with Empower 2 software for data handling (Waters). […] Appropriate gradients for separation of the peptides and their metabolites were created by mixtures of water (0.1% trifluoroacetic acid m/V) and acetonitrile (0.1% trifluoroacetic acid m/V).

[2] = tested on: brain parenchyma and capillaries; assay: Capillary depletion method: brain parenchyma/capillary distribution; format: in vivo, ICR-CD-1 mice; conditions: capillary depletion, 10 min after IV injection of radiolabeled peptide (200 μl, 10000 cpm/μl), brain perfused with lactated Ringer's buffer, two ICR-CD-1 mice, gamma counter
Experimental: The capillary depletion method was used to evaluate the distribution of the peptide between the brain parenchyma and capillaries. In summary (see Materials and Methods in [45]), 200 μl of a radiolabeled peptide solution (10000 cpm/μl) was injected in the jugular externalis vein of two anesthetized ICR-CD-1 mice. Ten minutes after IV injection, mice were decapitated and brains were collected and measured for radioactivity. […] The resulting homogenate was weighed and centrifuged at 5400 g for 30 min at 4°C, resulting in a pellet, i.e. capillaries, and supernatant, i.e. parenchyma and fat tissue, which were weighed and measured in the gamma counter. […] Compartmental distribution was calculated as follows: Fractioncapillaries or parenchyma (%)=[…] or parenchyma/[…]×100 (4)

[3] = In vitro metabolic stability in mouse brain homogenate; format: in vitro ADME; conditions: mouse brain homogenate 0.6 mg/ml protein (500 μl, 300 μg protein) + Krebs-Henseleit buffer pH 7.4, 0.1 mg/ml peptide, 37°C, 750 rpm, 0-120 min, HPLC-UV 215 nm
Experimental: as §1

cellular uptake = tested on: cellular uptake; design: method as in Stalmans et al.[1]; conditions: cell-penetrating (CP-) response, quantitative expression of cellular influx; ref Stalmans et al.[1]; cited from earlier work
[4] = tested on: blood-brain barrier (BBB); assay: Brain-to-blood transport (efflux) after intracerebroventricular injection; conditions: ICR-CD-1 mice
Experimental: Female, ICR-CD-1 mice (Harlan Laboratories, Venray, The Netherlands), aged 7 to 10 weeks and weighing 28–36 g, were used during the in vivo BBB transport experiments. All animal experiments were performed in accordance with the Ethical Committee principles of laboratory animal welfare. The protocol was approved by the Ethical Committee of the Faculty of Veterinary Science of Ghent University (Permit Numbers: 2009–052 and 2014–128). Prior to experiments, mice were anesthetized by intraperitoneal injection of a 40% urethane solution (3 g/kg) (Sigma-Aldrich, Diegem, Belgium).
For evaluation of the efflux of the peptides out of the brain, 1 μl of a radioiodinated peptide solution (25000 cpm/μl) was injected in the lateral ventricle of anesthetized ICR-CD-1 mice at a speed of 360 μl/h for 10 s using a syringe pump (KDS100, KR analytical, Cheshire, UK). […] The brain half-time disappearance (t1/2,brain) was calculated from the linear regression of the natural logarithm of the residual radioactivity in brain versus time as follows: t1/2,brain=ln(2)/kout (5) with kout defined as the efflux rate constant calculated as the absolute value of the slope of the linear regression, applying first order kinetics. An extensive description of the protocol can be found elsewhere.

[5] = In vitro metabolic stability in mouse kidney homogenate; format: in vitro ADME; conditions: mouse kidney homogenate 0.6 mg/ml protein (500 μl, 300 μg protein) + Krebs-Henseleit buffer pH 7.4, 0.1 mg/ml peptide, 37°C, 750 rpm, 0-120 min, HPLC-UV 215 nm
Experimental: as §1

[6] = tested on: blood-brain barrier (BBB); assay: Multiple time regression (MTR) analysis, blood-to-brain influx; format: in vivo, ICR-CD-1 mice; conditions: whole brain, ± 65% confidence limits
Experimental: Shortly, 200 μl of the radioiodinated CPP solution (30000 cpm/μl) was injected into the right jugular externalis vein of anesthetized ICR-CD-1 mice, which were then decapitated at 1, 3, 5, 10, 12.5 and 15 min post injection, with first and last time points performed in duplicate, after which brains were collected and measured for radioactivity using a gamma counter (Wallac Wizard 1470, Perkin Elmer). Shortly before decapitation, blood was collected from the left carotid artery, which was centrifuged (10000 g, 15 min at 21°C) in order to measure the radioactivity of blood and serum. Dermorphin and radioiodinated BSA were used as positive and negative control, respectively. The blood-to-brain entry during the experimental period of 15 min was evaluated by plotting the ratio of brain (Am(T)) and serum activity (Cp(T)), corrected for the brain weight and serum volume, respectively, versus the exposure time (Θ), expressing the theoretical steady state serum level of the iodinated peptide at a given serum concentration [37, 73]. The exposure time is calculated as the integral of the arterial serum radioactivity over time divided by the radioactivity at time t. The integral is calculated through the trapezoidal rule of the log-transformed data [73]. In the linear part of the curve, assuming a two-compartmental BBB model, data can be fitted using a linear model from which the unidirectional influx rate (Kin), also referred to as unidirectional blood to brain clearance K1 [46], and the initial brain distribution volume (Vi) can be determined using the following equation according to Gjedde and Patlak [37–40]: Am(T)/Cp(T)=Abrain(T)/Aserum(T)=Kin⋅Θ+Vi with Θ = ∫0TCp(t) ⋅ dt/Cp(T) (1)

[7] = In vitro metabolic stability in mouse liver homogenate; format: in vitro ADME; conditions: mouse liver homogenate 0.6 mg/ml protein (500 μl, 300 μg protein) + Krebs-Henseleit buffer pH 7.4, 0.1 mg/ml peptide, 37°C, 750 rpm, 0-120 min, HPLC-UV 215 nm
Experimental: as §1

[8] = tested on: blood-brain barrier (BBB); assay: Classification of peptides according to their BBB influx; conditions: classification method of ref [61] applied to the measured influx
Source text: This peptide is derived from the murine vascular endothelial (VE)-cadherin, located in the adherens junctions between the vascular endothelial cells, and constitutes the 13 cytosolic amino acids closest to the membrane and five amino acids from the C-terminus of the transmembrane region (615–632).

AGYLLGKINLKPLAALAKKIL-NH2 [TP10-2]
Half-life, serum ([1]; mouse serum 500 μl + 400 μl Krebs-Henseleit buffer pH 7.4 + 100 μl 1 mg/ml peptide, 37°C, 750 rpm, sampling 0-120 min plus early points, HPLC-UV 215 nm, t1/2 = -ln(2)/slope): 3.823 h | Serum half-life ([1]; mouse serum in Krebs-Henseleit buffer pH 7.4, 37°C, SPE then HPLC-UV): 4 h | Parenchymal fraction [2]: 84% | Half-life, brain [3]: 1.705 h | CP-response (cellular uptake): 0.749 | kout (efflux transfer constant) ([4]; 1 μl radioiodinated peptide (25000 cpm/μl) in lateral ventricle, 1-15 min, slope of ln(brain activity) vs time): 0.06 ± 0.01 min⁻¹ | t1/2,brain (half-time disappearance) ([4]; ln(2)/kout after intracerebroventricular injection): 0.183 h | Half-life, kidney [5]: 0.188 h | Kin (unidirectional influx rate), linear Gjedde-Patlak model ([6]; 125I-radioiodinated peptide, IV jugular vein 200 μl (30000 cpm/μl), anesthetized female ICR-CD-1 mice, 1-15 min, brain/serum radioactivity (gamma counter) vs exposure time, pVEC, SynB3, TP10: two experiments fitted together): 0.36 µL/g/min and 0.36 ± 0.06 µL/g/min | Vi (initial brain distribution volume), linear Gjedde-Patlak model ([6]; 125I-radioiodinated, IV, ICR-CD-1 mice, MTR 1-15 min): 10.07 ± 1.00 µL/g | Half-life, liver [7]: 1.97 h | BBB influx class [8]: class 2
